Measured values from publication PMC6067878, “Lipoate-binding proteins and specific lipoate-protein ligases in microbial sulfur oxidation reveal an atpyical role for an old cofactor” (eLife, 2018).

How the values were obtained:
[1] = molecular target: T1, TkLbpA1 (lipoate-binding protein LbpA1, TK90_0638) (Thioalkalivibrio sp. K90mix, UniProt D3SF86); test: MALDI mass spectrometry of enzymatic lipoylation; settings: covalent; lipoyl group attached to apo-protein by TkLplA with ATP, 37 °C
T1 construct: Strep- or His-tagged (pET22b), made in E. coli as apoprotein
T1 sequence (D3SF86 1-148): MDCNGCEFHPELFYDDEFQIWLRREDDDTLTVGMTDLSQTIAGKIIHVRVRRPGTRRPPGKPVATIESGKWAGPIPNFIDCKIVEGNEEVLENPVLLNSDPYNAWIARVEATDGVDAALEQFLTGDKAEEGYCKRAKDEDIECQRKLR

[2] = molecular target: T2, TkLplA (LplA-like lipoate-protein ligase, TK90_0642) (Thioalkalivibrio sp. K90mix, UniProt D3SF90); test: TLC of lipoyl-AMP from [alpha-32P]ATP; MALDI of lipoylated acceptor; format: biochemical; settings: Mg2+, 50 mM sodium phosphate pH 7.8, 37 °C (adenylation), acceptors TkLbpA1 and TkLbpA2
T2 construct: Strep- or His-tagged (pET22b), made in E. coli; single-domain ligase lacking the small domain
T2 sequence (D3SF90 1-363): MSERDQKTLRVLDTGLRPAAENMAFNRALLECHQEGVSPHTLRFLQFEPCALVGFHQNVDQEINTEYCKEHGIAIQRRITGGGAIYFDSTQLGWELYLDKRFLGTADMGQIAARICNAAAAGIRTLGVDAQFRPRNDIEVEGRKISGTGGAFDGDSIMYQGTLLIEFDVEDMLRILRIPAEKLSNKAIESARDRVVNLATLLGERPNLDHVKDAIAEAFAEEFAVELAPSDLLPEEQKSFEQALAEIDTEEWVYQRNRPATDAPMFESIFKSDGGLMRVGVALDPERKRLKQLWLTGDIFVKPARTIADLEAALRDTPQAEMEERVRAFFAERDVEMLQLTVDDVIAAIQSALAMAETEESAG

[3] = molecular target: T3, TkLbpA2 (lipoate-binding protein LbpA2, TK90_0640) (Thioalkalivibrio sp. K90mix, UniProt D3SF88); test: MALDI mass spectrometry of enzymatic lipoylation; settings: covalent; lipoyl group attached to apo-protein by TkLplA with ATP, 37 °C
T3 construct: gene gcvH; Strep- or His-tagged (pET22b), made in E. coli as apoprotein
T3 sequence (D3SF88 1-145): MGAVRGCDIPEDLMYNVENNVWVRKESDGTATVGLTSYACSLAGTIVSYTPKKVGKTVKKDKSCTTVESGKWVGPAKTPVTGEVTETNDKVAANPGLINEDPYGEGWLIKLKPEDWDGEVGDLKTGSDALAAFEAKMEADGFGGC

`O=C(O)CCCC[C@@H]1CCSS1` (racemic) [lipoic acid, 1,2-dithiolane-3-pentanoic acid] was tested, and the “MALDI mass spectrometry of enzymatic lipoylation” value [1] was “The overall lipoate ligase activity of LplA-like proteins was confirmed by mass spectrometry”, the “TLC of lipoyl-AMP from [alpha-32P]ATP; MALDI of lipoylated acceptor” value [2] was “synthesis of both octanoyl-adenylate and lipoyl-adenylate intermediates were readily demonstrated” and the “MALDI mass spectrometry of enzymatic lipoylation” value [3] was “The overall lipoate ligase activity of LplA-like proteins was confirmed by mass spectrometry”.
